Test results: article PMC11843331, “Metal-Triggered FAD Reduction in D-2-Hydroxyglutarate Dehydrogenase from Pseudomonas aeruginosa PAO1” (ACS Bio & Med Chem Au, 2024)

Target: T1, PaD2HGDH; Pseudomonas aeruginosa D-2-hydroxyglutarate dehydrogenase (Pseudomonas aeruginosa, UniProt Q9I6H4)
T1 construct: gene PA0317; recombinant from pET20b(+) harboring PA0317 (GenScript), purified to homogeneity; FAD- and Zn2+-containing
T1 sequence (Q9I6H4 1-464): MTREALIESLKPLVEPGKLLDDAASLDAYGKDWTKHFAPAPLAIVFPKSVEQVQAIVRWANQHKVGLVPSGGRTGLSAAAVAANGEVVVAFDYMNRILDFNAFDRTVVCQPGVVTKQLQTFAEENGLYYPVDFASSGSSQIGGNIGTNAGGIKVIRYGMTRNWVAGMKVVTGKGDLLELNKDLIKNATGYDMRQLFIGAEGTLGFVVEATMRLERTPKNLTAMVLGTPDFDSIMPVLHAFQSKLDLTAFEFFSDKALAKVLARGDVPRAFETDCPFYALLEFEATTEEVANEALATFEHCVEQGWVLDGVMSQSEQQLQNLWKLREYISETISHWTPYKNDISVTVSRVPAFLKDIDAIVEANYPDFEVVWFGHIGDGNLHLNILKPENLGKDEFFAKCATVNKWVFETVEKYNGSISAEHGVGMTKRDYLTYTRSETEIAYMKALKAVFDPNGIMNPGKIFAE
Assay: UV-visible absorption of enzyme-bound flavin, anaerobic reduction by D-malate
Format: binding
Details: 1 mM ZnCl2, pH 10.0, 25 °C; co-purified bound cofactor

Q: `Cc1cc2nc3c(=O)[nH]c(=O)nc-3n(C[C@H](O)[C@H](O)[C@H](O)COP(=O)(O)OP(=O)(O)OC[C@H]3O[C@@H](n4cnc5c(N)ncnc54)[C@H](O)[C@@H]3O)c2cc1C` [FAD] was tested. Which “UV-visible absorption of enzyme-bound flavin, anaerobic reduction by D-malate” value did it give?
A: The value was “characteristic properties of a fully reduced PaD2HGDH-bound flavin, as previously reported”.
